Source: US20190002436A1, “RESPIRATORY SYNCYTIAL VIRUS INHIBITORS” (MEDIVIR AB, priority 2015, published 2019)

tested on: RSV (Long); test: RSV cytopathic effect (CPE)-based viral replication assay; assay type: cell-based, respiratory syncytial virus (RSV); conditions: HEp-2 cells infected with RSV Long at MOI 0.015; 3 days at 37° C.; cell viability by CellTiter-Glo luminescence; read-out: EC50 (nm)
Outline: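 HEp-2 cells, 2,500 per well in DMEM with 2% heat-inactivated FBS, treated with 10-point compound dilutions and infected with RSV Long at MOI 0.015. After 3 days at 37 °C, 5% CO2, viability read by CellTiter-Glo luminescence; EC50 derived from CPE data.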

EC50 | SMILES
4.6 nM | O=C1N(Cc2ncc3ccccc3c2-c2ccc(F)nc2)c2ccccc2C12CC(NCCF)C2 (single isomer, unassigned) [Example 87-2, 3-((2-fluoroethyl)amino)-1′-((4-(6-fluoropyridin-3-yl)isoquinolin-3-yl)methyl)spiro[cyclobutane-1,3′-indolin]-2′-one]

same assay, conditions: human respiratory syncytial virus, HEp-2, 72 h, HEp-2 cells infected with RSV Long at MOI 0.015; 3 days at 37° C.; cell viability by CellTiter-Glo luminescence; read-out: EC50 (nm)

SMILES | EC50
CS(=O)(=O)Nc1cncc(-c2c(CN3C(=O)C4(CN(C(=O)C5(N)CC5)C4)c4ccccc43)ncc3ccccc23)c1 [Example 2006] | 26 nM
N#Cc1ccc(-c2c(CN3C(=O)C4(CN(C(=O)OCCO)C4)c4ccccc43)ncc3ccccc23)cn1 [Example 64, 2-Hydroxyethyl 1′-((4-(6-cyanopyridin-3-yl)isoquinolin-3-yl)methyl)-2′-oxospiro[azetidine-3,3′-indoline]-1-carboxylate] | 1.6 nM
O=C(N1CC2(C1)C(=O)N(Cc1ncc3ccccc3c1-c1cccnc1)c1ccccc12)C(F)(F)F [Example 128, 1′-((4-(Pyridin-3-yl)isoquinolin-3-yl)methyl)-1-(2,2,2-trifluoroacetyl)spiro[azetidine-3,3′-indolin]-2′-one] | 20 nM
NCCCC(=O)N1CC2(C1)C(=O)N(Cc1ncc3ccccc3c1-c1cccnc1)c1ccccc12 [Example 151, 1-(4-Aminobutanoyl)-1′-((4-(pyridin-3-yl)isoquinolin-3-yl)methyl)spiro[azetidine-3,3′-indolin]-2′-one] | 2.7 nM
CC(C)(O)C(=O)N1CCC2(CC1)C(=O)N(Cc1ncc3ccccc3c1-c1cccnc1)c1cnccc12 [Example 138, 1-(2-hydroxy-2-methylpropanoyl)-1′-((4-(pyridin-3-yl)isoquinolin-3-yl)methyl)spiro[piperidine-4,3′-pyrrolo[2,3-c]pyridin]-2′(1′H)-one] | 3.6 nM
N#Cc1ccc2c(CCCCO)c(Cn3c(=O)n(C4CC4)c4ccncc43)ncc2c1 [Example 25, 3-((1-cyclopropyl-2-oxo-1H-imidazo[4,5-c]pyridin-3(2H)-yl)methyl)-4-(4-hydroxybutyl)isoquinoline-7-carbonitrile] | 280 nM
NC1(C(=O)N2CCC3(CC2)C(=O)N(Cc2ncc4ccccc4c2-c2cncs2)c2cnccc23)CC1 [Example 2024] | 8.2 nM
CNC1(C(=O)N2CCC3(CC2)C(=O)N(Cc2ncc4ccccc4c2-c2ccc(C(=O)NC4CC4)nc2)c2cnccc23)CC1 [Example 109, N-cyclopropyl-5-(3-((1-(1-(methylamino)cyclopropanecarbonyl)-2′-oxospiro[piperidine-4,3′-pyrrolo[2,3-c]pyridin]-1′(2′H)-yl)methyl)isoquinolin-4-yl)picolinamide] | 3.8 nM
COC(=O)C1CC2(C1)C(=O)N(Cc1ncc3ccccc3c1-c1ccc(C3(N)CC3)nc1)c1cnccc12 (centres unmarked) [Example 2002] | 5.4 nM
CNC(=O)O[C@H]1C[C@@]2(C1)C(=O)N(Cc1ncc3ccccc3c1-c1ccc(C#N)nc1)c1ccccc12 [Example 133, (1R,3R)-1′-((4-(6-cyanopyridin-3-yl)isoquinolin-3-yl)methyl)-2′-oxospiro[cyclobutane-1,3′-indolin]-3-yl methylcarbamate] | 3.4 nM
CS(=O)(=O)N1CC2(C1)C(=O)N(Cc1ncc3ccccc3c1CCCCO)c1ccccc12 [Example 42, 1′-((4-(4-Hydroxybutyl)isoquinolin-3-yl)methyl)-1-(methylsulfonyl)spiro[azetidine-3,3′-indolin]-2′-one] | 4.6 nM
COC(=O)N1CC2(C1)C(=O)N(Cc1ncc3ccccc3c1-c1ccccn1)c1ccccc12 [Example 102, Methyl 2′-oxo-1′-((4-(pyridin-2-yl)isoquinolin-3-yl)methyl)spiro[azetidine-3,3′-indoline]-1-carboxylate] | 194 nM
CC(C)(C)c1ccc(-c2c(CN3C(=O)C4(CN(S(C)(=O)=O)C4)c4ccccc43)ncc3ccccc23)cc1 [Example 71, 1′-((4-(4-(Tert-butyl)phenyl)isoquinolin-3-yl)methyl)-1-(methylsulfonyl)spiro[azetidine-3,3′-indolin]-2′-one] | 200 nM
NC1(C(=O)N2CC3(C2)C(=O)N(Cc2ncc4ccccc4c2-c2ccc(S(N)(=O)=O)cc2)c2ccccc23)CC1 [Example 125, 4-(3-((1-(1-aminocyclopropanecarbonyl)-2′-oxospiro[azetidine-3,3′-indolin]-1′-yl)methyl)isoquinolin-4-yl)benzenesulfonamide] | 6 nM
CS(=O)(=O)Nc1ccc(-c2c(CN3C(=O)C4(CN(C(N)=O)C4)c4ccccc43)ncc3ccccc23)cc1 [Example 117, 1′-((4-(4-(methylsulfonamido)phenyl)isoquinolin-3-yl)methyl)-2′-oxospiro[azetidine-3,3′-indoline]-1-carboxamide] | 0.75 nM
CS(=O)(=O)N1CCC2(CC1)C(=O)N(Cc1ncc3ccccc3c1-c1cnc(C(N)=O)cn1)c1cnccc12 [Example 2017] | 34 nM
O=C(C1CCNCC1)N1CCC2(CC1)C(=O)N(Cc1ncc3ccccc3c1-c1cccnc1)c1cnccc12 [Example 140, 1-(piperidine-4-carbonyl)-1′-((4-(pyridin-3-yl)isoquinolin-3-yl)methyl)spiro[piperidine-4,3′-pyrrolo[2,3-c]pyridin]-2′(1′H)-one] | 3.4 nM
CC1(n2c(=O)n(Cc3ncc4ccccc4c3-c3ccc(C4(N)COC4)nc3)c3cnccc32)CC1 [Example 2022] | 19 nM

More lines, now with the values ahead:

EC50 | SMILES
4.8 nM | COC(=O)N1CC2(C1)C(=O)N(Cc1ncc3ccccc3c1-c1ccc(NS(C)(=O)=O)nc1)c1cnccc12 [Example 167d, methyl 1′-((4-(6-(methylsulfonamido)pyridin-3-yl)isoquinolin-3-yl)methyl)-2′-oxo-1′,2′-dihydrospiro[azetidine-3,3′-pyrrolo[2,3-c]pyridine]-1-carboxylate]
2 nM | NC(=O)N1CCC2(CC1)C(=O)N(Cc1ncc3ccccc3c1-c1cccnc1)c1cnccc12 [Example 135b, 2′-oxo-1′-((4-(pyridin-3-yl)isoquinolin-3-yl)methyl)-1′,2′-dihydrospiro[piperidine-4,3′-pyrrolo[2,3-c]pyridine]-1-carboxamide]
25 nM | N#Cc1ccc(-c2c(CN3C(=O)C4(CN(C(=O)C5(N)CC5)C4)c4ccccc43)ncc3ccccc23)cn1 [Example 60c, 5-(3-((1-(1-Aminocyclopropanecarbonyl)-2′-oxospiro[azetidine-3,3′-indolin]-1′-yl)methyl)isoquinolin-4-yl)picolinonitrile]
2.4 nM | CN(C)C(=O)c1ccc(-c2c(CN3C(=O)C4(CN(C(=O)C5(N)CC5)C4)c4ccccc43)ncc3ccccc23)cn1 [Example 121b, 5-(3-((1-(1-Aminocyclopropanecarbonyl)-2′-oxospiro[azetidine-3,3′-indolin]-1′-yl)methyl)isoquinolin-4-yl)-N,N-dimethylpicolinamide]
1.3 nM | CS(=O)(=O)N1CCC2(CC1)C(=O)N(Cc1ncc3cc(Cl)ccc3c1-c1cccnc1)c1cnccc12 [Example 160c, 1′-((7-chloro-4-(pyridin-3-yl)isoquinolin-3-yl)methyl)-1-(methylsulfonyl)spiro[piperidine-4,3′-pyrrolo[2,3-c]pyridin]-2′(1′H)-one]
2500 nM | CN1CCN(Cc2ccc3c(CCCCO)c(Cn4c(=O)n(C5CC5)c5ccncc54)ncc3c2)CC1 [Example 43j, 1-Cyclopropyl-3-((4-(4-hydroxybutyl)-7-((4-methylpiperazin-1-yl)methyl)isoquinolin-3-yl)methyl)-1H-imidazo[4,5-c]pyridin-2(3H)-one]
5.2 nM | O=C(N1CCC2(CC1)C(=O)N(Cc1ncc3ccccc3c1-c1cccnc1)c1cnccc12)C(F)(F)F [Example 129b, 1′-((4-(Pyridin-3-yl)isoquinolin-3-yl)methyl)-1-(2,2,2-trifluoroacetyl)spiro[piperidine-4,3′-pyrrolo[2,3-c]pyridin]-2′(1′H)-one]
23 nM | O=c1n(Cc2ncc3ccccc3c2CCCCO)c2cnccc2n1CC(F)(F)F [Example 3c, 3-((4-(4-hydroxybutyl)isoquinolin-3-yl)methyl)-1-(2,2,2-trifluoroethyl)-1H-imidazo[4,5-c]pyridin-2(3H)-one]
1000 nM | Cc1noc(C)c1-c1c(CN2C(=O)C3(CCN(C(=O)C4(N)CC4)CC3)c3ccncc32)ncc2ccccc12 [Example 130c, 1-(1-Aminocyclopropanecarbonyl)-1′-((4-(3,5-dimethylisoxazol-4-yl)isoquinolin-3-yl)methyl)spiro[piperidine-4,3′-pyrrolo[2,3-c]pyridin]-2′(1′H)-one]
5.1 nM | CC1(n2c(=O)n(Cc3ncc4ccccc4c3-c3ccc(C#N)nc3)c3ccccc32)CC1 [Example 90b, 5-(3-((3-(1-methylcyclopropyl)-2-oxo-2,3-dihydro-1H-benzo[d]imidazol-1-yl)methyl)isoquinolin-4-yl)picolinonitrile]
2.6 nM | CC1(n2c(=O)n(Cc3ncc4ccccc4c3CCCCO)c3cnccc32)CC1 [Example 52b, 3-((4-(4-hydroxybutyl)isoquinolin-3-yl)methyl)-1-(1-methylcyclopropyl)-1H-imidazo[4,5-c]pyridin-2(3H)-one]
1.8 nM | COC(=O)N1CC2(C1)C(=O)N(Cc1ncc3ccccc3c1-c1ccnc(F)c1)c1ccccc12 [Example 95b, Methyl 1′-((4-(2-fluoropyridin-4-yl)isoquinolin-3-yl)methyl)-2′-oxospiro[azetidine-3,3′-indoline]-1-carboxylate]

same assay, conditions: human respiratory syncytial virus, HEp-2, 72 h, read-out: EC50 (nm)

SMILES | EC50
COC(=O)N1CC2(C1)C(=O)N(Cc1ncc3ccccc3c1-c1ccc(C#N)cn1)c1ccccc12 [Example 101, Methyl 1′-((4-(5-cyanopyridin-2-yl)isoquinolin-3-yl)methy)-2′-oxospiro[azetidine-3,3′-indoline]-1-carboxylate] | 11 nM
